Results published in ChEMBL document CHEMBL1155164, “Sequencing and comparative genomic analysis of pK29, a 269-kilobase conjugative plasmid encoding CMY-8 and CTX-M-3 beta-lactamases in Klebsiella pneumoniae” (2007).
In brackets after ≈: the same amount, converted by molar mass.

How the values were obtained:
Assay type in all cases: functional
[1] = system: Klebsiella pneumoniae; assay: Antibacterial activity against Klebsiella pneumoniae NK29 by Etest
[2] = system: Escherichia coli; assay: Antibacterial activity against plasmid pK29 transconjugant Escherichia coli J53 by Etest
[3] = system: Escherichia coli; assay: Antibacterial activity against Escherichia coli J53 by Etest
[4] = system: Klebsiella pneumoniae; assay: Antibacterial activity against Klebsiella pneumoniae NK29 by broth microdilution test
[5] = system: Escherichia coli; assay: Antibacterial activity against plasmid pK29 transconjugant Escherichia coli J53 by broth microdilution test
[6] = system: Escherichia coli; assay: Antibacterial activity against Escherichia coli J53 by broth microdilution test
[7] = system: Klebsiella pneumoniae; assay: Antibacterial activity against Klebsiella pneumoniae NK29 assessed as inhibition zone diameter by CLSI disk diffusion confirmatory test
[8] = system: Escherichia coli; assay: Antibacterial activity against plasmid pK29 transconjugant Escherichia coli J53 assessed as inhibition zone diameter by CLSI disk diffusion confirmatory test
[9] = system: Escherichia coli; assay: Antibacterial activity against Escherichia coli J53 assessed as inhibition zone diameter by CLSI disk diffusion confirmatory test

| Structure (SMILES) | MIC [1] | MIC [2] | MIC [3] | MIC [4] | MIC [5] | MIC [6] | inhibition zone (IZ) [7] | inhibition zone (IZ) [8] | inhibition zone (IZ) [9] |
| --- | --- | --- | --- | --- | --- | --- | --- | --- | --- |
| CO[C@@]1(NC(=O)Cc2cccs2)C(=O)N2C(C(=O)O)=C(COC(N)=O)CS[C@@H]21 [CEFOXITIN] | > 256 µg/mL | > 256 µg/mL | 4 µg/mL (≈ 9.36 µM) |  |  |  |  |  |  |
| NC[C@H]1O[C@H](O[C@H]2[C@H](O)[C@@H](O[C@H]3O[C@H](CO)[C@@H](O)[C@H](N)[C@H]3O)[C@H](N)C[C@@H]2N)[C@H](O)[C@@H](O)[C@@H]1O [KANAMYCIN] |  |  |  | 32 µg/mL (≈ 66 µM) | 32 µg/mL (≈ 66 µM) | 8 µg/mL (≈ 16.5 µM) |  |  |  |
| CN(C)[C@@H]1C(O)=C(C(N)=O)C(=O)[C@@]2(O)C(O)=C3C(=O)c4c(O)cccc4[C@@](C)(O)[C@H]3C[C@@H]12 [TETRACYCLINE] | 8 µg/mL (≈ 18 µM) | 2 µg/mL (≈ 4.5 µM) | 2 µg/mL (≈ 4.5 µM) |  |  |  |  |  |  |
| CO/N=C(\C(=O)N[C@@H]1C(=O)N2C(C(=O)O)=C(CSc3nc(=O)c(O)nn3C)CS[C@H]12)c1csc(N)n1 [CEFTRIAXONE] | 24 µg/mL (≈ 43.3 µM) | 16 µg/mL (≈ 28.9 µM) | 0.19 µg/mL (≈ 0.343 µM) |  |  |  |  |  |  |
| C[C@H]1[C@H](NC(=O)/C(=N\OC(C)(C)C(=O)O)c2csc(N)n2)C(=O)N1S(=O)(=O)O [AZTREONAM] | 4 µg/mL (≈ 9.19 µM) | 2 µg/mL (≈ 4.59 µM) |  |  |  |  |  |  |  |
| C[C@@H](O)[C@H]1C(=O)N2C(C(=O)O)=C(SCCNC=N)C[C@H]12 [IMIPENEM ANHYDROUS] | 0.25 µg/mL (≈ 0.835 µM) | 0.25 µg/mL (≈ 0.835 µM) |  |  |  |  |  |  |  |
| CC(C)(O/N=C(\C(=O)N[C@@H]1C(=O)N2C(C(=O)[O-])=C(C[n+]3ccccc3)CS[C@H]12)c1csc(N)n1)C(=O)O [CEFTAZIDIME] | 16 µg/mL (≈ 29.3 µM) | 1.5 µg/mL (≈ 2.74 µM) | 0.19 µg/mL (≈ 0.348 µM) |  |  |  | 17 mm | 27 mm | 33 mm |
| O=C(O)c1cn(C2CC2)c2cc(N3CCNCC3)c(F)cc2c1=O [CIPROFLOXACIN] | 0.047 µg/mL (≈ 0.142 µM) |  |  |  |  |  |  |  |  |
| CO/N=C(\C(=O)N[C@@H]1C(=O)N2C(C(=O)O)=C(COC(C)=O)CS[C@H]12)c1csc(N)n1 [CEFOTAXIME] | 32 µg/mL (≈ 70.3 µM) | 24 µg/mL (≈ 52.7 µM) | 0.064 µg/mL (≈ 0.141 µM) |  |  |  | 13 mm | 16 mm | 31 mm |
| CO/N=C(\C(=O)N[C@@H]1C(=O)N2C(C(=O)[O-])=C(C[N+]3(C)CCCC3)CS[C@H]12)c1csc(N)n1 [CEFEPIME] | 2 µg/mL (≈ 4.16 µM) | 1 µg/mL (≈ 2.08 µM) | 0.094 µg/mL (≈ 0.196 µM) |  |  |  |  |  |  |
| O=C(N[C@H](CO)[C@H](O)c1ccc([N+](=O)[O-])cc1)C(Cl)Cl [CHLORAMPHENICOL] | 96 µg/mL (≈ 297 µM) | 96 µg/mL (≈ 297 µM) | 4 µg/mL (≈ 12.4 µM) |  |  |  |  |  |  |
| Cc1cc(NS(=O)(=O)c2ccc(N)cc2)no1 [SULFAMETHOXAZOLE] |  |  |  | > 512 µg/mL | > 512 µg/mL | ≤ 64 µg/mL |  |  |  |
